Reference: patent US11376271B1, “Methods of ameliorating the effects of alcoholic liver damage” (FULGENT LIFE INC., priority 2021, dated 2022)

Experiments:
AML12 cells [1] = experiment: Rescue from hydrogen peroxide (HP) genotoxicity: cell survival and NAD+ level; type: cell-based; conditions: 3 h
Procedure: Because the increasing extent of NAD+ concentration is of interest, whether NADH can improve the cell survival rate under the stressful conditions of depletion of NAD+ was also assessed. To that end, as genotoxicity can lead to DNA damage, activate poly(ADP-ribose) polymerases and induce NAD+ depletion, genotoxicity was tested. Strong genotoxicity will lead to severe consumption of NAD+ by cells, resulting in cell death. To test genotoxicity, AML12 cells were treated with 500 μM hydrogen peroxide (HP) for 3 hours in the presence or absence of 1 mM NADH, and then the cells were counted and NAD+ was detected in the samples co-treated with NADH (1 mM) or its vehicle. FIG. 4A is a graph comparing the cell survival rate of the HP treated cells, NADH treated cells, and the HP+NADH treated cells relative to a control. And FIG. 4B is a graph comparing the NAD+ level of the HP treated cells, NADH treated cells, and the HP+NADH treated cells relative to a control. The cell survival rates and cellular NAD+ levels in FIGS. 4A-B are expressed as mean±SD.
The effects of NADH and NMN at a lower concentration (250 μM) on AML12 cells was also tested in a separate assay. Specifically, AML12 cells were treated with 500 μM HP in the presence or absence of 250 μm NADH or NMN for 3 h. FIG. 4C is a graph comparing the cell survival rate of the HP treated cells, HP+NADH treated cells, and the HP+NMN treated cells relative to a control. And FIG. 4D is a graph comparing the NAD+ level of the HP treated cells, HP+NADH treated cells, and the HP+NMN treated cells relative to a control. The cell survival rate and cellular NAD+ levels in FIGS. 4C-D are expressed as mean±SD.

male C57BL/6J mice [2] = experiment: Tissue NAD+ content after intraperitoneal injection; type: in vivo; conditions: 4 hours
Procedure: In the below in vivo assays, C57BL/6J male mice (The Jackson Laboratory) (40 days of age) were used. They were kept under standard laboratory conditions with a temperature of 22±1° C., dark/light cycles of 12/12 h, and relative humidity of 55±5%. All animals had free access to food and water, except for indicated fasting periods (and where not indicated for fasting periods of 2 hours before administration).
[…] Specifically, ten 8-week-old male C57BL/6J mice (The Jackson Laboratory) were kept in polycarbonate cages under a 12-h light/dark cycle with free access to food and water. […] Four hours later, the blood samples were collected by cardiac puncture and the mice were executed. Liver, brain, muscle, and adipose tissues were collected, instantly frozen in liquid nitrogen, and then stored at −80° C. until performance of the NAD+ analyses. […] Four hours later, the mice were killed and tissue samples were collected. All animal studies were performed according to the Guidelines for the Care and Use of Experimental Animals. For this NAD+ assay, about 100 mg of frozen tissue was crushed in liquid nitrogen and ultrasonically homogenized in 7% perchloric acid, and then the solution was neutralized and subjected to the NAD+ determination described here.
Data are indicated as mean±SD.

AML12 cells [3] = experiment: NAD+/NADH ratio in AML12 cells; conditions: 1 mM, 6 h, vs control
male C57BL/6J mice [4] = experiment: Loss of righting reflex (LORR) test; type: in vivo; conditions: 500 mg/kg intragastric 15 min prior to 8 ml/kg ethanol
From the text: Alcohol acts on the central nervous system, causing various behavioral and/or cognitive problems, e.g., loss of righting reflex (LORR). […] LORR is defined as the phenomenon that mice cannot correct themselves three times within 30 seconds after alcohol intake. LORR latency is defined as the time from drinking to occurrence of LORR, and LORR duration is defined as the time from occurrence to recovery of LORR.
Fisher's exact probability test was used to analyze the loss of righting reflex (LORR) in the mice. […] The data representing LORR latency and duration are expressed as mean±SD (n=10); *p<0.05 vs alcohol group.

male C57BL/6J mice [5] = experiment: Blood ethanol and acetaldehyde levels after ethanol administration
[6] = 500 μM HP + 250 μM compound, AML12 cells
[7] = 500 mg/kg intragastric 15 min before 8 ml/kg ethanol (40% w/v)

## NC(=O)C1=CN([C@@H]2O[C@H](COP(=O)(O)OP(=O)(O)OC[C@H]3O[C@@H](n4cnc5c(N)ncnc54)C(O)C3O)C(O)C2O)C=CC1 (some centres unmarked) [NADH, nicotinamide adenine dinucleotide (NAD)+hydrogen (H)]
AML12 cells [1]; [6]
  effect on NAD+ levels under HP: protective effect
  effect on cell survival under HP: protective effect
AML12 cells [1]; 500 μM HP + 1 mM NADH, AML12 cells
  NAD+ level in HP co-treated cells: remained high
AML12 cells [1]; 500 μM HP + 1 mM NADH, AML12 cells (HP alone 12%)
  cell survival rate under HP+NADH treatment: ~72%
Male C57BL/6J mice [2]; 250 mg/kg intraperitoneal
  increase of the concentration of NAD+ in the liver: 680%
Male C57BL/6J mice [2]; 1000 mg/kg intraperitoneal
  NAD+-promoting effect in skeletal muscle: lowest
  content of NAD+ in blood, brain and fat: increased several times
  increase of NAD+ content in liver: more than 7 times
AML12 cells [3]
  NAD+/NADH ratio: significantly increase
Male C57BL/6J mice [4]
  LORR duration relative to the model group: one third
  LORR duration vs model group: decrease
  LORR latency vs model group: prolonged
  average LORR latency relative to the model group: 4 times
  share of mice that had a righting reflex after drinking alcohol: less than half
Male C57BL/6J mice [4]; model group 100%
  LORR rate vs model group: decrease
Male C57BL/6J mice [4]; model group 14.76 minutes
  average LORR latency: 60.24 min
Male C57BL/6J mice [4]; model group about 798.68 minutes
  LORR duration: 265.00 min
Male C57BL/6J mice [5]; [7]
  acetaldehyde in the blood two hours after alcohol administration: significantly reduced
  blood acetaldehyde levels within two hours after ethanol administration: significantly increased
Male C57BL/6J mice [5]; 500 mg/kg oral 15 min before 8 ml/kg ethanol (40% w/v), 30 minutes after ethanol
  ethanol in the blood: significantly reduced
